Test results published in patent US20080090734A1, “DRUG SCREENING AND TARGET IDENTIFICATION USING SPR IMAGING OF TARGET PROTEIN ARRAYS” (The Trustees of California State University, priority 2006, published 2008).

What was measured:
Experiment in all cases: Antibiotic susceptibility profile
Format in all cases: cell-based, Acinetobacter baumannii
Design in all cases: key: Resistance; Intermediate; Susceptible
[1] = tested on: A. baumannii clinical isolate LAC 01
Excerpt: (§1) We obtained over thirty clinical isolates of A. baumannii from nosocomial infections in New York City and Los Angeles. […] Only antibiotics with breakpoints for A. baumannii were used. […] Isolates LA 01 to 20 were acquired from Los Angels County while NY-A to NY-H were obtained from New York City.
(§2) Antibiotic susceptibility profiles of clinical isolates of A. baumannii and reference strains. R, I, and S denote Resistance, Intermediate and Susceptible, respectively. Genetic Profiling of Clinical Isolates of A. baumannii

[2] = tested on: A. baumannii clinical isolate LAC 02
Excerpt: as §1, §2

[3] = tested on: A. baumannii clinical isolate LAC 03
Excerpt: as §1, §2

[4] = tested on: A. baumannii clinical isolate LAC 04
Excerpt: as §1, §2

[5] = tested on: A. baumannii clinical isolate LAC 05
Excerpt: as §1, §2

[6] = tested on: A. baumannii clinical isolate LAC 06
Excerpt: as §1, §2

[7] = tested on: A. baumannii clinical isolate LAC 07
Excerpt: as §1, §2

[8] = tested on: A. baumannii clinical isolate LAC 08
Excerpt: as §1, §2

[9] = tested on: A. baumannii clinical isolate LAC 09
Excerpt: as §1, §2

[10] = tested on: A. baumannii clinical isolate LAC 10
Excerpt: as §1, §2

[11] = tested on: A. baumannii clinical isolate LAC 11
Excerpt: as §1, §2

[12] = tested on: A. baumannii clinical isolate LAC 12
Excerpt: as §1, §2

[13] = tested on: A. baumannii clinical isolate LAC 13
Excerpt: as §1, §2

[14] = tested on: A. baumannii clinical isolate LAC 14
Excerpt: as §1, §2

[15] = tested on: A. baumannii clinical isolate LAC 15
Excerpt: as §1, §2

[16] = tested on: A. baumannii clinical isolate LAC 16
Excerpt: as §1, §2

[17] = tested on: A. baumannii clinical isolate LAC 17
Excerpt: as §1, §2

[18] = tested on: A. baumannii clinical isolate LAC 18
Excerpt: as §1, §2

[19] = tested on: A. baumannii clinical isolate LAC 19
Excerpt: as §1, §2

[20] = tested on: A. baumannii clinical isolate LAC 20
Excerpt: as §1, §2

[21] = tested on: A. baumannii clinical isolate NY A
Excerpt: as §1, §2

[22] = tested on: A. baumannii clinical isolate NY B
Excerpt: as §1, §2

[23] = tested on: A. baumannii clinical isolate NY C
Excerpt: as §1, §2

[24] = tested on: A. baumannii clinical isolate NY D
Excerpt: as §1, §2

[25] = tested on: A. baumannii clinical isolate NY E
Excerpt: as §1, §2

[26] = tested on: A. baumannii clinical isolate NY F
Excerpt: as §1, §2

[27] = tested on: A. baumannii clinical isolate NY G
Excerpt: as §1, §2

[28] = tested on: A. baumannii clinical isolate NY H
Excerpt: as §1, §2

[29] = tested on: A. baumannii reference strain 15839; settings: strain 15839 (ATCC)
Excerpt: as §1, §2

[30] = tested on: A. baumannii reference strain 17978; settings: strain 17978 (ATCC)
Excerpt: as §1, §2

[31] = tested on: A. baumannii reference strain 19606; settings: strain 19606 (ATCC)
Excerpt: as §1, §2

[32] = tested on: A. baumannii reference strain AYE
Excerpt: as §1, §2

[33] = tested on: A. baumannii reference strain SDF
Excerpt: as §1, §2

Measured: Antibiotic susceptibility

COc1c(N2CCNC(C)C2)c(F)cc2c(=O)c(C(=O)O)cn(C3CC3)c12 (stereo not shown) [GAT, Gatifloxacin]
I: [19] | [32]
S: [4] | [6] | [30] | [31] | [33]
R: all other assays above

CO/N=C(\C(=O)N[C@@H]1C(=O)N2C(C(=O)[O-])=C(C[N+]3(C)CCCC3)CS[C@H]12)c1csc(N)n1 [FEP, Cefepime]
S: [6] | [30]
I: [4] | [5] | [8] | [21] | [29] | [31] | [33]
R: all other assays above

C[C@H]1COc2c(N3CCN(C)CC3)c(F)cc3c(=O)c(C(=O)O)cn1c23 [LVX, Levofloxacin]
S: [4] | [6] | [30] | [31] | [33]
I: [1] | [2] | [19] | [21] | [28] | [32]
not listed: [26]
R: all other assays above

CN(C)c1ccc(O)c2c1C[C@H]1C[C@H]3[C@H](N(C)C)C(O)=C(C(N)=O)C(=O)[C@@]3(O)C(O)=C1C2=O [MIN, Minocycline]
I: [25]
R: [11] | [12] | [13] | [14] | [22]
not listed: [26]
S: all other assays above
